Reference: ChEMBL document CHEMBL1201862, “PubChem BioAssay data set” (2004)
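Cultured in 96-well plates, cells were exposed to test compound for 48 hours across five concentrations. The concentration for 50% growth inhibition is given as GI50.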 The source made the active and inactive calls. No stated cut-off is given here; in the data, active = GI50 up to about 1.1 µM and inactive = higher.

Tests used:
Assay in all cases: DTP human tumour cell line panel, 48 h
[1] = tested on: A498
[2] = tested on: A549
[3] = tested on: CCRF-CEM
[4] = tested on: DU-145
[5] = tested on: EKVX
[6] = tested on: HL-60
[7] = tested on: HOP-92
[8] = tested on: Hs-578T
[9] = tested on: IGROV-1
[10] = tested on: MDA-MB-231
[11] = tested on: MDA-N
[12] = tested on: Malme-3M
[13] = tested on: NCI-H23
[14] = tested on: NCI/ADR-RES
[15] = tested on: OVCAR-5
[16] = tested on: SF-268
[17] = tested on: SNB-19
[18] = tested on: SNB-75
[19] = tested on: K562

Measured: GI50

Cc1ccsc1C(=S)Nc1ccc(Cl)c(/C=N/OC(C)C)c1
inactive: [1] 64 µM | [2] 46.6 µM | [3] 38.1 µM | [4] 92.5 µM | [5] 22.9 µM | [6] 10.3 µM | [7] > 100 µM | [8] 45.8 µM | [9] 25.8 µM | [10] 41.2 µM | [11] 37.8 µM | [12] 35.1 µM | [13] 20.1 µM | [14] 30 µM | [15] > 100 µM | [16] 86.3 µM | [17] 44.5 µM | [18] 48.2 µM

CCNC(=S)NNC(=O)CSc1nc2ccc(I)cc2c(=O)n1Cc1ccccc1
inactive: [1] 14.5 µM | [2] 25.5 µM | [3] 7.98 µM | [4] > 79.4 µM | [5] 15.8 µM | [6] 1.81 µM | [7] 17.3 µM | [8] 29.7 µM | [9] 14.6 µM | [19] 10.6 µM | [10] 41.5 µM | [11] 13.5 µM | [12] 23.9 µM | [13] 21.6 µM | [14] 22 µM | [15] > 100 µM | [16] 31.9 µM | [17] > 87.5 µM | [18] > 85.7 µM

CC(C)=CCC[C@@H](C)C1=C(O)C(O)C(C)=C2N=C(c3ccccc3)C(=O)OC21 (stereo partly drawn)
inactive: [1] 2.81 µM | [2] 2.65 µM | [3] 2.4 µM | [4] 4.36 µM | [5] 8.85 µM | [8] 1.87 µM | [9] 1.22 µM | [19] 1.24 µM | [10] 2.52 µM | [11] 7.57 µM | [12] 1.14 µM | [15] 18.1 µM | [16] 1.53 µM | [17] 3.33 µM | [18] 3.7 µM
active: [6] 0.521 µM | [7] 0.723 µM | [13] 0.726 µM | [14] 0.794 µM

CCOC1C=CCCO1 (stereo not drawn)
inactive: [1] > 100 µM | [2] > 100 µM | [3] > 100 µM | [4] > 100 µM | [5] > 100 µM | [6] > 100 µM | [7] > 100 µM | [8] > 100 µM | [9] > 100 µM | [19] > 100 µM | [10] > 100 µM | [11] > 100 µM | [12] > 100 µM | [13] > 100 µM | [14] > 100 µM | [15] > 100 µM | [16] > 100 µM | [17] > 100 µM | [18] > 100 µM

Cc1ccc(O)c(-c2cc(-c3cccc(Br)c3)on2)c1
inactive: [1] 68.9 µM | [2] 29.4 µM | [3] 26.9 µM | [4] 33.6 µM | [5] 34.4 µM | [6] 27 µM | [7] 22.2 µM | [8] 44.6 µM | [9] 14.5 µM | [19] 29.6 µM | [10] 30.1 µM | [11] 25.6 µM | [12] 32.6 µM | [13] 37.1 µM | [14] 31.8 µM | [15] 35.8 µM | [16] 24.2 µM | [17] 39.3 µM | [18] 12.2 µM

CCC1(c2ccccc2)C(=O)N=C(c2ccccc2)N1CCc1ccccc1 (stereo not drawn)
inactive: [1] > 100 µM | [2] > 100 µM | [3] > 100 µM | [4] > 100 µM | [5] > 100 µM | [6] > 100 µM | [7] > 100 µM | [8] > 100 µM | [9] > 100 µM | [19] > 100 µM | [10] > 100 µM | [11] > 100 µM | [12] > 100 µM | [13] > 100 µM | [14] > 100 µM | [15] > 100 µM | [16] > 100 µM | [17] > 100 µM | [18] > 100 µM

Cc1ccc2[nH]c3[nH]c(=S)[nH]c(=O)c3c2c1
inactive: [1] > 100 µM | [2] > 100 µM | [3] > 100 µM | [4] > 100 µM | [5] > 100 µM | [6] > 100 µM | [7] > 100 µM | [8] > 100 µM | [9] > 100 µM | [19] 96.4 µM | [10] > 100 µM | [11] > 100 µM | [12] > 100 µM | [13] > 100 µM | [14] > 100 µM | [15] > 100 µM | [16] > 100 µM | [17] > 100 µM | [18] 40 µM

COc1ccc2nc3ccc(OC)cc3c([S+]([O-])CCCl)c2c1 (stereo not drawn)
inactive: [1] 16.8 µM | [2] 20.9 µM | [3] 2.42 µM | [4] 1.99 µM | [5] 10.5 µM | [6] 2.31 µM | [7] 2.49 µM | [8] 2.24 µM | [9] 2.48 µM | [10] 5.87 µM | [11] 2.44 µM | [12] 1.69 µM | [13] 4.26 µM | [14] 15.2 µM | [15] 14.9 µM | [16] 6.76 µM | [17] 22.5 µM | [18] 17.8 µM

CC1=NN(C(=O)CC(=O)Nc2ccccc2C)C(=O)C1/N=N/c1ccc(C(=O)O)cc1 (stereo not drawn)
inactive: [1] > 100 µM | [2] > 100 µM | [3] 86.9 µM | [4] > 100 µM | [5] > 100 µM | [6] > 100 µM | [7] 20.5 µM | [8] 68.9 µM | [9] > 100 µM | [19] > 100 µM | [10] > 100 µM | [11] > 100 µM | [12] > 100 µM | [13] > 100 µM | [14] > 100 µM | [15] > 100 µM | [16] > 100 µM | [17] > 100 µM | [18] 70.5 µM

CCOC(=O)Oc1ccc(C(CNC(C)C)OC(=O)OCC)cc1OC(=O)OCC (stereo not drawn)
inactive: [1] > 100 µM | [2] > 100 µM | [3] 48.1 µM | [4] > 100 µM | [5] > 100 µM | [6] 25.4 µM | [7] > 100 µM | [8] > 100 µM | [9] > 100 µM | [19] > 100 µM | [10] 26.2 µM | [11] > 100 µM | [12] > 100 µM | [13] > 100 µM | [14] > 100 µM | [15] > 100 µM | [16] > 100 µM | [17] > 100 µM | [18] > 100 µM

CC1=NN(c2cccc(Cl)c2)C2(C1)SCC(=O)N2c1nc2ccccc2s1 (stereo not drawn)
inactive: [1] 27.9 µM | [2] 31.2 µM | [3] 21.8 µM | [4] 24.6 µM | [5] 29.7 µM | [6] 22.2 µM | [7] 32.8 µM | [8] 41.1 µM | [9] 21.9 µM | [19] 18.2 µM | [10] 19.1 µM | [11] 33 µM | [12] 34.3 µM | [13] 29.2 µM | [14] 32.1 µM | [15] 37 µM | [16] 31.2 µM | [17] 36 µM | [18] 13.2 µM

COc1cc(Oc2nc3c(N)cc(C(F)(F)F)cc3nc2-c2ccccc2)cc(OC)c1OC
inactive: [1] 7.89 µM | [2] 5 µM | [3] 4.9 µM | [4] 8.55 µM | [5] 13.1 µM | [6] 1.16 µM | [7] 14.7 µM | [8] 3.69 µM | [19] 1.23 µM | [10] 10.2 µM | [13] 2.82 µM | [14] 2.09 µM | [15] 31.3 µM | [16] 4.66 µM | [17] 3.17 µM | [18] 1.23 µM
active: [9] 0.916 µM | [11] 0.412 µM | [12] 0.869 µM

COc1ccc(-c2nc(N)c3ncn(C4OC(CO)C(O)C4O)c3n2)cc1 (stereo not drawn)
inactive: [1] > 100 µM | [2] > 100 µM | [3] > 100 µM | [4] > 100 µM | [5] > 100 µM | [6] > 100 µM | [7] > 100 µM | [8] > 100 µM | [9] > 100 µM | [19] > 100 µM | [10] > 100 µM | [11] > 100 µM | [12] > 100 µM | [13] > 100 µM | [14] > 100 µM | [15] > 100 µM | [16] > 100 µM | [17] > 100 µM | [18] > 100 µM

COc1cccc(C(=O)N[C@@H]2[C@H](O)[C@@H](CO)O[C@H]2n2cnc3c(N)ncnc32)c1
inactive: [1] > 100 µM | [2] > 100 µM | [3] > 100 µM | [4] > 100 µM | [5] > 100 µM | [6] > 100 µM | [7] > 100 µM | [8] > 100 µM | [9] > 100 µM | [19] > 100 µM | [10] > 100 µM | [11] > 100 µM | [12] > 100 µM | [13] > 100 µM | [14] > 100 µM | [15] > 100 µM | [16] > 100 µM | [17] > 100 µM | [18] > 100 µM

O=C1/C(=C/c2ccc(O)cc2)CC/C1=C\c1ccc(O)cc1
active: [6] 0.458 µM
inactive: [1] > 33 µM | [2] > 95.1 µM | [3] 1.52 µM | [4] > 100 µM | [5] 99.8 µM | [7] > 68.9 µM | [8] > 100 µM | [9] > 100 µM | [19] > 100 µM | [10] > 100 µM | [11] > 100 µM | [12] > 72.6 µM | [13] > 100 µM | [14] 28.3 µM | [15] > 100 µM | [16] > 95.1 µM | [17] > 87.1 µM | [18] > 100 µM
